# Where a name gives a salt, the structure may show the parent alone.
# Biological target: T1, AMPA receptor (human GluR1 flip/stargazin expressed in CHO-K1 cells) (Homo sapiens, UniProt P42261)
# T1 construct: expressed in transfected cells; host or cells: CHO-K1
# Test: AMPA receptor function enhancing activity using calcium influx as index
# Type: cell-based
# Settings: test compound 30 μM with glutamic acid final 3 mM, change in fluorescence in 3 min, 100% = 3 mM glutamic acid + 300 μM cyclothiazide, 0% = 3 mM glutamic acid only
# Procedure, shortened: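 CHO-K1 clone stably co-expressing human GluR1 flip and stargazin, loaded with Calcium 4 dye plus probenecid. Compound at 30 μM was added with glutamate (3 mM final) and fluorescence change followed over 3 min. Activity is expressed as % of the 3 mM glutamate plus 300 μM cyclothiazide response, with glutamate alone as 0%.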
# T1 sequence (P42261 19-906 isoform P42261-2 limits assumed): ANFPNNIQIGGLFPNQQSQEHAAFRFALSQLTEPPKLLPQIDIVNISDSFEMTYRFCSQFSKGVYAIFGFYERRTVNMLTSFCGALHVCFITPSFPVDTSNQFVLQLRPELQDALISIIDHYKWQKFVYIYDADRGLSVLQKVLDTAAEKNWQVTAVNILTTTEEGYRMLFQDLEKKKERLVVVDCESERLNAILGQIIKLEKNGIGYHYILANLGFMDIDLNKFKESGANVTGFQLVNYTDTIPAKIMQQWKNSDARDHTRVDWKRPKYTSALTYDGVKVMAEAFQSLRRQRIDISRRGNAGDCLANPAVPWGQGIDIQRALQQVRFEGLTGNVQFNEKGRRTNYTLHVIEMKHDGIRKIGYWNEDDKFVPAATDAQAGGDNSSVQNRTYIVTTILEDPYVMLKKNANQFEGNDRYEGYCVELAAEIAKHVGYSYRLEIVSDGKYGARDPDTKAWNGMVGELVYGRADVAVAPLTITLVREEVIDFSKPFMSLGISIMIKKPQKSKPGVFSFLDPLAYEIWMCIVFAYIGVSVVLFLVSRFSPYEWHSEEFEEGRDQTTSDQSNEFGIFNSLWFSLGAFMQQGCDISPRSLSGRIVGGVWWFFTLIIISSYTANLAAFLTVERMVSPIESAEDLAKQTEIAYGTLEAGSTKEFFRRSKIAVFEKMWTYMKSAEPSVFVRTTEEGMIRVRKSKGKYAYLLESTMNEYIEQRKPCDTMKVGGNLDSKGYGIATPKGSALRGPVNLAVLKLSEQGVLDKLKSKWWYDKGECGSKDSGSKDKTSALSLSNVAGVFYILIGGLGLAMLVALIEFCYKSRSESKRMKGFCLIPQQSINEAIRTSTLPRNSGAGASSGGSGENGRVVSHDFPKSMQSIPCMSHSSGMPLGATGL
# T1 sequence (Q9Y698 whole entry partner): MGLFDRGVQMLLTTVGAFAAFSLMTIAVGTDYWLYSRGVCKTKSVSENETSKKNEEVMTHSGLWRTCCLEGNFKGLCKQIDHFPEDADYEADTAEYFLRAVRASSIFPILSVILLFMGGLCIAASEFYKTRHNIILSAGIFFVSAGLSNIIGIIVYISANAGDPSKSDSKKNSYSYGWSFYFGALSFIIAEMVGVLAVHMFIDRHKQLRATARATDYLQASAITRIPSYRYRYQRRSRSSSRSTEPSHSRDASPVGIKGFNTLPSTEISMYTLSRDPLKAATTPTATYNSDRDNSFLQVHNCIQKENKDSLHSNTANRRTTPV
row,SMILES,activity (%)
1,"O=S1(=O)CCN2C=CC=C(c3ccc(-n4nc(C(F)(F)F)cc4C4CC4)cc3)C2=N1 [Example 299, 9-{4-[5-cyclopropyl-3-(trifluoromethyl)-1H-pyrazol-1-yl]phenyl}-3,4-dihydropyrido[2,1-c][1,2,4]thiadiazine 2,2-dioxide]",88%
2,"Cc1cc(C(F)(F)F)nn1-c1ccc(C2=CC=CN3CCS(=O)(=O)N=C23)cc1 [Example 300, 9-{4-[5-methyl-3-(trifluoromethyl)-1H-pyrazol-1-yl]phenyl}-3,4-dihydropyrido[2,1-c][1,2,4]thiadiazine 2,2-dioxide]",93%
3,"O=S1(=O)CCN2CCCC(c3ccc(-n4nc(C(F)(F)F)cc4C4CC4)cc3)C2=N1 (stereo not drawn) [Example 301, 9-{4-[5-cyclopropyl-3-(trifluoromethyl)-1H-pyrazol-1-yl]phenyl}-3,4,6,7,8,9-hexahydropyrido[2,1-c][1,2,4]thiadiazine 2,2-dioxide]",76%
4,"O=S1(=O)CCN2CCCC(COc3ccc4c(c3)CCCC4)C2=N1 (stereo not drawn) [Example 303, 9-[(5,6,7,8-tetrahydronaphthalen-2-yloxy)methyl]-3,4,6,7,8,9-hexahydropyrido[2,1-c][1,2,4]thiadiazine 2,2-dioxide]",82%
5,"O=C(c1ccccc1)c1ccc(C2CCCN3CCS(=O)(=O)N=C23)cc1 (stereo not drawn) [Example 304, [4-(2,2-dioxido-3,4,6,7,8,9-hexahydropyrido[2,1-c][1,2,4]thiadiazin-9-yl)phenyl](phenyl)methanone]",87%
6,"COc1cccc(C(=O)c2ccc(C3=CC=CN4CCS(=O)(=O)N=C34)cc2)c1 [Example 306, [4-(2,2-dioxido-3,4-dihydropyrido[2,1-c][1,2,4]thiadiazin-9-yl)phenyl](3-methoxyphenyl)methanone]",89%
7,"O=S1(=O)CCN2C=CC=C(c3ccc(Oc4ccc5c(c4)OCC5)cc3)C2=N1 [Example 313, 9-[4-(2,3-dihydro-1-benzofuran-6-yloxy)phenyl]-3,4-dihydropyrido[2,1-c][1,2,4]thiadiazine 2,2-dioxide]",95%
8,"COc1cc(Oc2ccc(C3=CC=CN4CCS(=O)(=O)N=C34)cc2)ccc1F [Example 316, 9-[4-(4-fluoro-3-methoxyphenoxy)phenyl]-3,4-dihydropyrido[2,1-c][1,2,4]thiadiazine 2,2-dioxide]",89%
9,"O=S1(=O)CCN2CCCC(c3ccc(C4(c5ccccc5)CCC4)cc3)C2=N1 (stereo not drawn) [Example 321, 9-[4-(1-phenylcyclobutyl)phenyl]-3,4,6,7,8,9-hexahydropyrido[2,1-c][1,2,4]thiadiazine 2,2-dioxide]",64%
10,"CC(F)(F)c1ccc(Oc2ccc(C3=CC=CN4CCS(=O)(=O)N=C34)cc2)cc1 [Example 323, 9-{4-[4-(1,1-difluoroethyl)phenoxy]phenyl}-3,4-dihydropyrido[2,1-c][1,2,4]thiadiazine 2,2-dioxide]",85%
11,"Cc1ccc(Cc2ccc(C3CCCN4CCS(=O)(=O)N=C34)cc2)cc1 (stereo not drawn) [Example 324, 9-[4-(4-methylbenzyl)phenyl]-3,4,6,7,8,9-hexahydropyrido[2,1-c][1,2,4]thiadiazine 2,2-dioxide]",63%
12,"CC(C)(c1ccccc1)c1ccc(C2=CC=CN3CCS(=O)(=O)N=C23)cc1 [Example 325, 9-[4-(1-methyl-1-phenylethyl)phenyl]-3,4-dihydropyrido[2,1-c][1,2,4]thiadiazine 2,2-dioxide]",99%
13,"Cc1ccc(C(C)(C)c2ccc(C3=CC=CN4CCS(=O)(=O)N=C34)cc2)cc1 [Example 329, 9-{4-[1-methyl-1-(4-methylphenyl)ethyl]phenyl}-3,4-dihydropyrido[2,1-c][1,2,4]thiadiazine 2,2-dioxide]",82%
14,"O=S1(=O)CCN2C=CN=C(c3ccc(-c4ccccc4)c(F)c3)C2=N1 [Example 344, 9-(2-fluorobiphenyl-4-yl)-3,4-dihydropyrazino[2,1-c][1,2,4]thiadiazine 2,2-dioxide]",74%
15,"O=S1(=O)CCN2CCNC(c3ccc(-c4ccccc4)c(F)c3)C2=N1 (stereo not drawn) [Example 345, 9-(2-fluorobiphenyl-4-yl)-3,4,6,7,8,9-hexahydropyrazino[2,1-c][1,2,4]thiadiazine 2,2-dioxide]",63%
16,"O=S1(=O)CCN2CCCC(c3ccc(Oc4ccccc4)c(F)c3)C2=N1 (stereo not drawn) [Example 347, 9-(3-fluoro-4-phenoxyphenyl)-3,4,6,7,8,9-hexahydropyrido[2,1-c][1,2,4]thiadiazine 2,2-dioxide]",76%
17,"[2H]C1(c2ccc(-c3ccccc3)c(F)c2)NCCN2CCS(=O)(=O)N=C21 (stereo not drawn) [Example 348, 9-(2-fluorobiphenyl-4-yl)(9-^2H)-3,4,6,7,8,9-hexahydropyrazino[2,1-c][1,2,4]thiadiazine 2,2-dioxide Hydrochloride]",64%
18,"CCCOc1ccc(C2=CC=CN3CCS(=O)(=O)N=C23)cc1F [Example 349, 9-(3-fluoro-4-propoxyphenyl)-3,4-dihydropyrido[2,1-c][1,2,4]thiadiazine 2,2-dioxide]",83%
19,"CCCOc1ccc(C2CCCN3CCS(=O)(=O)N=C23)cc1F (stereo not drawn) [Example 350, 9-(3-fluoro-4-propoxyphenyl)-3,4,6,7,8,9-hexahydropyrido[2,1-c][1,2,4]thiadiazine 2,2-dioxide]",74%
20,"CCCCOc1ccc(C2CCCN3CCS(=O)(=O)N=C23)cc1F (stereo not drawn) [Example 352, 9-(4-butoxy-3-fluorophenyl)-3,4,6,7,8,9-hexahydropyrido[2,1-c][1,2,4]thiadiazine 2,2-dioxide]",76%
21,"O=S1(=O)CCN2CCCC(c3ccc(Oc4ccc(F)cc4)cc3)C2=N1 (stereo not drawn) [Example 357, 9-[4-(4-fluorophenoxy)phenyl]-3,4,6,7,8,9-hexahydropyrido[2,1-c][1,2,4]thiadiazine 2,2-dioxide]",77%
22,"CC(C)Oc1ccc(C2=CC=CN3CCS(=O)(=O)N=C23)cc1F [Example 361, 9-[3-fluoro-4-(1-methylethoxy)phenyl]-3,4-dihydropyrido[2,1-c][1,2,4]thiadiazine 2,2-dioxide]",85%
23,"O=S1(=O)CCN2C=CC=C(c3ccc(C4(F)COC4)cc3)C2=N1 [Example 396, 9-[4-(3-fluorooxetan-3-yl)phenyl]-3,4-dihydropyrido[2,1-c][1,2,4]thiadiazine 2,2-dioxide]",82%
24,"O=S1(=O)CCN2C=CC=C(c3ccc(N4CCOCC4)cc3)C2=N1 [Example 397, 9-(4-morpholin-4-ylphenyl)-3,4-dihydropyrido[2,1-c][1,2,4]thiadiazine 2,2-dioxide]",83%
25,"CC(=O)c1ccc(C2=CC=CN3CCS(=O)(=O)N=C23)cc1 [Example 400, 1-[4-(2,2-dioxido-3,4-dihydropyrido[2,1-c][1,2,4]thiadiazin-9-yl)phenyl]ethanone]",83%
26,"CSc1ccc(C2=CC=CN3CCS(=O)(=O)N=C23)cc1 [Example 408, 9-[4-(methylsulfanyl)phenyl]-3,4-dihydropyrido[2,1-c][1,2,4]thiadiazine 2,2-dioxide]",85%
27,"CC(C)(C)Oc1ccc(C2=CC=CN3CCS(=O)(=O)N=C23)cc1 [Example 411, 9-(4-tert-butoxyphenyl)-3,4-dihydropyrido[2,1-c][1,2,4]thiadiazine 2,2-dioxide]",86%

# — patent US8916551B2, “Heterocyclic compound and use thereof” (Takeda Pharmaceutical Company Limited, priority 2010, dated 2014)
